# What was measured:
# rat IP3R1 = target: T1, rat IP3R1 (Rattus norvegicus, UniProt P29994); assay: IP3-evoked Ca^2+ release from permeabilized DT40-IP3R1 cells; format: cell-based; settings: IP3R1
# T1 construct: different for NTs (NT2 > NT1 > > NT3) and full-length IP3Rs (IP3R3 > IP3R1 ≥ IP3R2); expressed in transfected cells
# Experimental: (§1) We used DT40 cells lacking endogenous IP3Rs (Sugawara et al., [1997]), but stably expressing rat IP3R1 (GenBank accession number GQ233032.1; Pantazaka and Taylor, [2011]), mouse IP3R2 (GU980658.1; Tovey et al., [2010]) or rat IP3R3 (GQ233031.1; Rahman et al., [2009]). Cells were grown in suspension in RPMI 1640 medium supplemented with 10% FBS, 1% heat-inactivated chicken serum, 2 mM glutamine and 50 μM 2-mercaptoethanol at 37°C in humidified air containing 5% CO2. Cells were used or passaged when they reached a density of ∼1.5 × 10^6 cells mL^−1.
# (§2) A low-affinity Ca^2+ indicator trapped within the ER of permeabilized DT40 cells was used to measure IP3-evoked Ca^2+ release (Tovey et al., [2006]; Saleem et al., [2012]). Briefly, the ER was loaded with indicator by incubating cells (∼5 × 10^7 mL^−1) in the dark with Mag-fluo-4AM (20 μM) in HEPES-buffered saline (HBS) containing 0.02% (v/v) Pluronic F127 for 1 h at 22°C. HBS had the following composition: 135 mM NaCl, 5.9 mM KCl, 11.6 mM HEPES, 1.5 mM CaCl2, 11.5 mM glucose, 1.2 mM MgCl2, pH 7.3. After permeabilization of the plasma membrane with saponin (10 μg·mL^−1, 4 min, 37°C) in Ca^2+-free cytosol-like medium (CLM), permeabilized cells were washed (650× g, 2 min) and resuspended (∼10^7 mL^−1) in Mg^2+-free CLM containing carbonyl cyanide 4-(trifluoromethoxy) phenylhydrazone (FCCP, 10 μM) to inhibit mitochondria, and supplemented with CaCl2 to give a final free [Ca^2+] of 220 nM after addition of 1.5 mM MgATP. Ca^2+-free CLM had the following composition: 2 mM NaCl, 140 mM KCl, 1 mM EGTA, 20 mM PIPES, 2 mM MgCl2, pH 7.0. Permeabilized cells were then distributed into 96-well plates (50 μL, 5 × 10^5 cells per well), centrifuged (300× g, 2 min) and used for experiments at 20°C. Addition of MgATP (1.5 mM) allowed Ca^2+ uptake by the ER, which was monitored at intervals of ∼1 s using a FlexStation-3 plate reader (MDS Analytical Devices, Berkshire, UK; Tovey et al., [2006]). After 2 min, when the ER had loaded to steady-state with Ca^2+, IP3 was added with CPA (10 μM) to inhibit further Ca^2+ uptake. IP3-evoked Ca^2+ release was expressed as a fraction of that released by ionomycin (1 μM; Tovey et al., [2006]). Similar methods were used to measure IP3-evoked Ca^2+ release from intact or permeabilized HEK cells (Tovey et al., [2008]). The timings of antagonist additions are described in the figure legends. The affinity of each competitive antagonist (pKD) was determined from the intercept on the abscissa of the Schild plot.
# (§3) Concentration–effect relationships were fitted to Hill equations using Prism (version 5.0, GraphPad, San Diego, CA, USA), from which Hill coefficients (h), the fraction of the intracellular Ca^2+ stores released by a maximally effective concentrations of IP3, and pEC50 values were calculated.
# mouse IP3R2 = target: T2, mouse IP3R2 (Mus musculus, UniProt Q9Z329); assay: IP3-evoked Ca^2+ release from permeabilized DT40-IP3R2 cells; format: cell-based; settings: IP3R2
# T2 construct: different for NTs (NT2 > NT1 > > NT3) and full-length IP3Rs (IP3R3 > IP3R1 ≥ IP3R2); expressed in transfected cells
# Experimental: as §1, §2, §3
# rat IP3R3 = target: T3, rat IP3R3 (Rattus norvegicus, UniProt Q63269); assay: IP3-evoked Ca^2+ release from permeabilized DT40-IP3R3 cells; format: cell-based; settings: IP3R3
# T3 construct: different for NTs (NT2 > NT1 > > NT3) and full-length IP3Rs (IP3R3 > IP3R1 ≥ IP3R2); expressed in transfected cells
# T3 sequence (Q63269 whole entry): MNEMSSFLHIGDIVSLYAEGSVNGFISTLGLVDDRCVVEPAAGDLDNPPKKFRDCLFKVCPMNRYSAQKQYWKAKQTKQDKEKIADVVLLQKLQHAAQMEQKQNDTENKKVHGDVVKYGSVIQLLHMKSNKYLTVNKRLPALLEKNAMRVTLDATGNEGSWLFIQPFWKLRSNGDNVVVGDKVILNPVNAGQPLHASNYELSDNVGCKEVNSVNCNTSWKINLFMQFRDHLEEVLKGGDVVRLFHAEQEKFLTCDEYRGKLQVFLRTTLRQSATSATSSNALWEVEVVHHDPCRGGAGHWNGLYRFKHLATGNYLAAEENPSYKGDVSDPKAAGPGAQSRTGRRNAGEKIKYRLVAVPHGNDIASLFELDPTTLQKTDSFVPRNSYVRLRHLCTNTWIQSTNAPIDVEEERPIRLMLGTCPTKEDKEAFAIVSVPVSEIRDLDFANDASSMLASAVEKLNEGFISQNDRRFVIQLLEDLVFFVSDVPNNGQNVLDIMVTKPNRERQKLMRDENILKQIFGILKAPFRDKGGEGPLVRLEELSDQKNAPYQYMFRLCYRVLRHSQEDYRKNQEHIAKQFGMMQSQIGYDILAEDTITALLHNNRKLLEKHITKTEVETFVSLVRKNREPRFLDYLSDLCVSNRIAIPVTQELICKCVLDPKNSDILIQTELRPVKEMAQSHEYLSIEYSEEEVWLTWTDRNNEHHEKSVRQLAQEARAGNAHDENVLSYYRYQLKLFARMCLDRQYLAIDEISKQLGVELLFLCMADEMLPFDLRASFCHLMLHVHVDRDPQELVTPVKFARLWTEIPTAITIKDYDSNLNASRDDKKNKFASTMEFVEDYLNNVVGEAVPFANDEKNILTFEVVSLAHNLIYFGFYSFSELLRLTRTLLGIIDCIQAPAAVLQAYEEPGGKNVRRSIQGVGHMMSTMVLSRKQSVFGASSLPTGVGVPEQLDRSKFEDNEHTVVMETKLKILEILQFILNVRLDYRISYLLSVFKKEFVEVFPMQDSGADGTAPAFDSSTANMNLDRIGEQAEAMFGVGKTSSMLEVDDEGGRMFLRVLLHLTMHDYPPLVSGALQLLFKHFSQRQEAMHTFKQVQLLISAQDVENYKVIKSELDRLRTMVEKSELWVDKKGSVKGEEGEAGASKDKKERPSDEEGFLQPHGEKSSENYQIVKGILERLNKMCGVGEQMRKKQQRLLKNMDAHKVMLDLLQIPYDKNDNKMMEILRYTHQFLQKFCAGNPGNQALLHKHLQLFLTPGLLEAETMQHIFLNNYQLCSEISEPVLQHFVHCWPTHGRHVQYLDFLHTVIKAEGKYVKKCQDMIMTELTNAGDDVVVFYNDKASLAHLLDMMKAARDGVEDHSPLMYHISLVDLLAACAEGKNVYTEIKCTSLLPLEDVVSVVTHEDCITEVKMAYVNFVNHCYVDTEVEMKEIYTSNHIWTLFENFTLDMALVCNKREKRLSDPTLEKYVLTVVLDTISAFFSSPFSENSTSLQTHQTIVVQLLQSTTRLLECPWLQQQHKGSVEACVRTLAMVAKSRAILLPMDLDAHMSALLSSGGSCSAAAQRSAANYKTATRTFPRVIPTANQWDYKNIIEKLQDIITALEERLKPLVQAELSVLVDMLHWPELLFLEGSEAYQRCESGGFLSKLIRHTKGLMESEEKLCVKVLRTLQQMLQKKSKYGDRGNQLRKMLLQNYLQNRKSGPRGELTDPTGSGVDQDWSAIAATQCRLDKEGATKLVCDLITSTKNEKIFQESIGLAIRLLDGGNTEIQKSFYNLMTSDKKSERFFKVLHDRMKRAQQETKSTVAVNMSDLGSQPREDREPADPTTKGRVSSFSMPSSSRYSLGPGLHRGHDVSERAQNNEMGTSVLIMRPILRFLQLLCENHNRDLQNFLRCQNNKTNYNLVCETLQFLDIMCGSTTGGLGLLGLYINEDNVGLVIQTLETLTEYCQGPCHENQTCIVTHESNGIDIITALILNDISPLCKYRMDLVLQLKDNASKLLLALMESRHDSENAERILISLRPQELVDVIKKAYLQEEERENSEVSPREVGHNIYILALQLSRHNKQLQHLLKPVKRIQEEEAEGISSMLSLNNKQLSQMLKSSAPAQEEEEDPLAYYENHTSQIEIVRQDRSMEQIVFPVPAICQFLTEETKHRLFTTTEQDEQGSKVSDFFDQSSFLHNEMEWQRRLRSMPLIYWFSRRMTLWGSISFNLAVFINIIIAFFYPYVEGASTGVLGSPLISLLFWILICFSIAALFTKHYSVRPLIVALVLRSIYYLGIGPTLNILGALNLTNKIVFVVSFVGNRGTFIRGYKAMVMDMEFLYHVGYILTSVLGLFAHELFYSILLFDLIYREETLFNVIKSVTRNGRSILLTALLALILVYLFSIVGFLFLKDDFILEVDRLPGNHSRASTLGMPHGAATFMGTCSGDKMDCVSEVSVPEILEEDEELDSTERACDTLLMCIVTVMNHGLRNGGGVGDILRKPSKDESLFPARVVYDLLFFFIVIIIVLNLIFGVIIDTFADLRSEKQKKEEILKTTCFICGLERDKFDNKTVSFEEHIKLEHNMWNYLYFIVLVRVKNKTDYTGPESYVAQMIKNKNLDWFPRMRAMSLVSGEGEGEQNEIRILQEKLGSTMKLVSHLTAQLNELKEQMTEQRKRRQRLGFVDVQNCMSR
# Experimental: as §1, §2, §3
# [1] = tested on: permeabilized DT40-IP3R1-3 cells; assay: Ca^2+ uptake and Ca^2+ content of the intracellular stores of permeabilized DT40 cells; format: cell-based; settings: permeabilized DT40 cells, 5 min pre-incubation
# Experimental: Briefly, the ER was loaded with indicator by incubating cells (∼5 × 10^7 mL^−1) in the dark with Mag-fluo-4AM (20 μM) in HEPES-buffered saline (HBS) containing 0.02% (v/v) Pluronic F127 for 1 h at 22°C. […] Ca^2+-free CLM had the following composition: 2 mM NaCl, 140 mM KCl, 1 mM EGTA, 20 mM PIPES, 2 mM MgCl2, pH 7.0. Permeabilized cells were then distributed into 96-well plates (50 μL, 5 × 10^5 cells per well), centrifuged (300× g, 2 min) and used for experiments at 20°C. […] After 2 min, when the ER had loaded to steady-state with Ca^2+, IP3 was added with CPA (10 μM) to inhibit further Ca^2+ uptake. […] The timings of antagonist additions are described in the figure legends. The affinity of each competitive antagonist (pKD) was determined from the intercept on the abscissa of the Schild plot.
# HEK cells [2] = assay: IP3-evoked Ca^2+ release from permeabilized HEK cells; format: cell-based; settings: 5 min
# Experimental: as §2, with “Ca^2+-free CLM had the following composition: 2 mM NaCl, 140 mM KCl, 1 mM EGTA, 20 mM PIPES, 2 mM MgCl2, pH 7.0. Permeabilized cells were then distributed into 96-well plates (50 μL, 5 × 10^5 cells per well), centrifuged (300× g, 2 min) and used for experiments at 20°C.” left out, “After 2 min, when the ER had loaded to steady-state with Ca^2+, IP3 was added with CPA (10 μM) to inhibit further Ca^2+ uptake.” left out, “Similar methods were used to measure IP3-evoked Ca^2+ release from intact or permeabilized HEK cells (Tovey et al., [2008]). The timings of antagonist additions are described in the figure legends.” left out
# HEK cells [3] = assay: Steady-state Ca^2+ content of the intracellular stores of permeabilized HEK cells; format: cell-based; settings: 5 min
# Experimental: as §2, with “Ca^2+-free CLM had the following composition: 2 mM NaCl, 140 mM KCl, 1 mM EGTA, 20 mM PIPES, 2 mM MgCl2, pH 7.0. Permeabilized cells were then distributed into 96-well plates (50 μL, 5 × 10^5 cells per well), centrifuged (300× g, 2 min) and used for experiments at 20°C.” left out, “After 2 min, when the ER had loaded to steady-state with Ca^2+, IP3 was added with CPA (10 μM) to inhibit further Ca^2+ uptake.” left out, “Similar methods were used to measure IP3-evoked Ca^2+ release from intact or permeabilized HEK cells (Tovey et al., [2008]). The timings of antagonist additions are described in the figure legends.” left out
# HEK cells [4] = assay: Carbachol-evoked Ca^2+ signals in intact HEK cells; format: cell-based; settings: intact HEK cells; Xestospongin 10 μM for 30 min
# Experimental: as §2
# HEK cells [5] = tested on: HEK cells; set-up: method as in Kurian et al., [2009]; settings: Xestospongin C 10 μM for 30 min in Ca^2+-free medium, ref Kurian et al., [2009]; cited from earlier work
# cerebellar microsomes = tested on: cerebellar microsomes; set-up: method as in Gafni et al., [1997]; settings: ref Gafni et al., [1997], read-out: IC50, inhibition of IP3-evoked Ca^2+ release; cited from earlier work
# [6] = 5 µM, 5 min, purified (Gafni et al., 1997)
# [7] = 20 µM, 7 min, purified (Gafni et al., 1997)
# [8] = 20 µM, 12 min, purified (Gafni et al., 1997)
# [9] = Xestospongin 20 μM, pooled 7 and 12 min
# [10] = Xestospongin 20 μM, pooled from 7 and 12 min pre-incubation
# [11] = Xestospongin C 5–20 μM from either source, 5–12 min before IP3
# [12] = 10 µM, 5 min, purified (Gafni et al., 1997)
# [13] = 10 µM, 5 min, source Calbiochem
smiles,measurement,setting,value
C1CCC[C@H]2CCCN3CC[C@@H](CCCCCC[C@@H]4CCCN5CC[C@@H](CC1)O[C@@H]45)O[C@@H]23 [Xestospongin C],ΔMax,rat IP3R1; [6],2 ± 2%
same,ΔpEC50,"rat IP3R1; 5 µM, 5 min, purified as described (Gafni et al., 1997)",-0.12 ± 0.12 M⁻¹
same,ΔMax,"rat IP3R1; 5 µM, 5 min, source Calbiochem",2 ± 1%
same,ΔpEC50,"rat IP3R1; 5 µM, 5 min, source Calbiochem",0.09 ± 0.07 M⁻¹
same,ΔMax,rat IP3R1; [7],9 ± 3 %
same,ΔpEC50,rat IP3R1; [7],0.08 ± 0.07 M⁻¹
same,ΔMax,rat IP3R1; [8],4 ± 3%
same,ΔpEC50,rat IP3R1; [8],0.33 ± 0.18 M⁻¹
same,ΔMax,rat IP3R1; [9],6 ± 2 %
same,ΔpEC50,rat IP3R1; [10],0.21 ± 0.10 M
same,effect on IP3-evoked Ca^2+ release,rat IP3R1; [11],no significant effect
same,ΔMax,mouse IP3R2; [6],0 ± 4%
same,ΔMax,"mouse IP3R2; 5 µM, 5 min, source Calbiochem",5 ± 6%
same,ΔMax,mouse IP3R2; [7],2 ± 2%
same,ΔMax,mouse IP3R2; [8],1 ± 2%
same,ΔMax,mouse IP3R2; [9],1 ± 1%
same,effect on IP3-evoked Ca^2+ release,mouse IP3R2; [11],no significant effect
same,ΔMax,rat IP3R3; [6],3 ± 14%
same,ΔpEC50,rat IP3R3; [6],0.02 ± 0.09 M⁻¹
same,ΔMax,"rat IP3R3; 5 µM, 5 min, source Calbiochem",15 ± 7%
same,ΔpEC50,"rat IP3R3; 5 µM, 5 min, source Calbiochem",-0.04 ± 0.11 M⁻¹
same,ΔMax,rat IP3R3; [7],1 ± 3%
same,ΔpEC50,rat IP3R3; [7],0.15 ± 0.02 M⁻¹
same,ΔMax,rat IP3R3; [8],2 ± 2%
same,ΔpEC50,rat IP3R3; [8],0.10 ± 0.05 M⁻¹
same,ΔMax,rat IP3R3; [9],1 ± 2%
same,ΔpEC50,rat IP3R3; [9],0.12 ± 0.03 M
same,effect on IP3-evoked Ca^2+ release,rat IP3R3; [11],no significant effect
same,effect on Ca^2+ content of the stores,[1]; 5 μM purified Xestospongin C,no significant effect
same,effect on Ca^2+ release evoked by IP3,HEK cells [2]; Xestospongin C 5 μM,no effect
same,effect on Ca^2+ content of the intracellular stores,HEK cells [3]; Xestospongin C 5 μM,no effect
same,effect on Ca^2+ signals evoked by carbachol,HEK cells [4],no significant effect
same,effect on carbachol-evoked Ca^2+ signals,HEK cells [5],"substantial, though incomplete, inhibition"
same,IC50,cerebellar microsomes,358 nM
O[C@@]12CCCCCC[C@H]3CCN4CCC[C@H](CCCCCC[C@H]5CCN(CCC1)[C@@H]2O5)[C@H]4O3 [Xestospongin D],ΔMax,rat IP3R1; [12],15 ± 4 %
same,ΔpEC50,rat IP3R1; [12],-0.02 ± 0.10 M⁻¹
same,ΔMax,rat IP3R1; [13],17 ± 6 %
same,ΔpEC50,rat IP3R1; [13],0.28 ± 0.13 M⁻¹
same,ΔMax,rat IP3R1; [7],18 ± 5 %
same,ΔpEC50,rat IP3R1; [7],0.37 ± 0.11 M⁻¹
same,ΔMax,rat IP3R1; [8],18 ± 1 %
same,ΔpEC50,rat IP3R1; [8],0.14 ± 0.12 M⁻¹
same,ΔMax,rat IP3R1; [9],18 ± 2 %
same,ΔpEC50,rat IP3R1; [10],0.26 ± 0.09 M
same,effect on IP3-evoked Ca^2+ release,"rat IP3R1; Xestospongin D 10–20 μM from either source, 5–12 min","modest, but statistically significant"
same,ΔMax,mouse IP3R2; [12],2 ± 3%
same,ΔpEC50,mouse IP3R2; [12],-0.07 ± 0.07
same,ΔMax,mouse IP3R2; [13],2 ± 4%
same,ΔpEC50,mouse IP3R2; [13],0.25 ± 0.22
same,ΔMax,mouse IP3R2; [7],5 ± 2%
same,ΔpEC50,mouse IP3R2; [7],-0.06 ± 0.04
same,ΔMax,mouse IP3R2; [8],11 ± 5%
same,ΔpEC50,mouse IP3R2; [8],-0.23 ± 0.06
same,ΔMax,mouse IP3R2; [9],8 ± 3 %
same,ΔpEC50,mouse IP3R2; [9],−0.15 ± 0.05
same,ΔpEC50,"mouse IP3R2; Xestospongin 20 μM, pooled 7 and 12 min, listed as XeD",-0.15 ± 0.05
same,ΔMax,rat IP3R3; [12],8 ± 8%
same,ΔpEC50,rat IP3R3; [12],0.16 ± 0.26 M⁻¹
same,ΔMax,rat IP3R3; [13],12 ± 1 %
same,ΔpEC50,rat IP3R3; [13],0.03 ± 0.04 M⁻¹
same,ΔMax,rat IP3R3; [7],4 ± 2%
same,ΔpEC50,rat IP3R3; [7],0.39 ± 0.10 M⁻¹
same,ΔMax,rat IP3R3; [8],-1 ± 0%
same,ΔpEC50,rat IP3R3; [8],0.03 ± 0.08 M⁻¹
same,ΔMax,rat IP3R3; [9],2 ± 2%
same,ΔpEC50,rat IP3R3; [9],0.21 ± 0.10 M
same,effect on Ca^2+ content of the intracellular stores,[1]; 10 μM purified Xestospongin D,no effect
same,effect on Ca^2+ release evoked by IP3,HEK cells [2]; Xestospongin D 10 μM,no effect
same,effect on Ca^2+ content of the intracellular stores,HEK cells [3]; Xestospongin D 10 μM,no effect
same,effect on Ca^2+ signals evoked by carbachol,HEK cells [4],no significant effect

# Reference: PMC4080982, “Interactions of antagonists with subtypes of inositol 1,4,5-trisphosphate (IP3) receptor” (British Journal of Pharmacology, 2014)
